From patent US11401271B2, “Fused heterocyclic compound, pyrazole-ring-containing fused heterocyclic compound, agricultural composition containing thereof, and method of using the composition” (SOUTH CHINA AGRICULTURAL UNIVERSITY, priority 2017, dated 2022)
Like-named read-outs stand apart in the source and are kept apart here.

What was measured:
Assay type in all cases: in vivo
Plutella xylostella = assay: whole plant or invertebrate; settings: Plutella xylostella, read-out: Plutella xylostella Mortality (%) 500 ppm
How it was run: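 Leaf immersion feeding test: 2nd-instar larvae (about 35 per vessel, 3 replicates) kept at 28° C. on 1.0 cm cabbage discs soaked 5 s in a 500 ppm solution with 0.05% Tween-80. Mortality after 24 h of exposure, calculated relative to live larvae in the Tween-80 control.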

Spodoptera exigua = assay: whole plant or invertebrate; settings: Spodoptera exigua, read-out: Spodoptera exigua Mortality (%) 500 ppm
How it was run: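 Leaf immersion feeding: second-instar larvae (about 35 per vessel, triplicate) kept at 28° C on discs treated with 500 ppm test solution in 0.05% Tween-80. Mortality at 24 h, calculated relative to surviving larvae in the solvent control.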

Aphis craccivora = assay: whole plant or invertebrate; settings: Aphis craccivora, read-out: Aphis craccivora Mortality (%) 500 ppm
How it was run: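 Mortality scored 24 h after treatment as the reduction in live aphids versus a 0.05% Tween-80 control; three replicates, 23° C. Treatment was a 5 s immersion of wingless adults on bean sprouts in 500 ppm test solution containing 0.05% Tween-80, followed by air-drying.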

Solenopsis invicta = assay: whole plant or invertebrate; settings: Solenopsis invicta, water test tube poison-feeding
How it was run: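 Mortality (%) of Solenopsis invicta, computed against live counts in control tubes, was recorded 24 h and 72 h after treatment at 25 °C. Compound was offered by oral feeding in test tubes at 100 ppm, diluted from a 10 g/L DMSO stock into water with 5% honey and 0.05% Tween-80.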

Bombyx mori L. = assay: Toxicity test on 2nd-instar larvae of Bombyx mori L., leaf immersion feeding method; settings: 1000 ppm, 24 hours
Procedure: (1) Toxicity Test on 2nd-Instar Larvae of Bombyx mori L.
Bombyx mori L. is an important economic insect sensitive to pesticides in an agricultural ecosystem, and is also one of the non-target organisms of environmental ecology listed in pesticide registration of China. The 2nd-instar larvae of Bombyx mori L. were used as test objects and tested by using a leaf immersion feeding method.
Operation process: Samples were weighed accurately, and respectively added with 200 μL of dimethyl sulfoxide to prepare 10 g/L mother liquor which was diluted into a concentration of 1000 ppm with an aqueous solution containing 0.05% of Tween-80 during the test. Young cotyledons of mulberries were collected, washed and air-dried, immersed in a liquid medicine, taken out after 5 seconds, naturally air-dryed, and then transferred into a clean vessel. About 35 2nd -instar larvae of Bombyx mori L. were put into the vessel and fed at a constant temperature of 25° C. Each concentration was repeated 3 times, and an aqueous solution containing 0.05% of Tween-80 was used as a control group. After being treated for 24 hours, a number of dead Bombyx mori L. was counted, and a mortality (%) was calculated according to a formula that mortality (%)=(number of live larvae in the control group −number of treated live larvae)/number of live larvae in the control group * 100%.

Apis cernan = assay: Toxicity test on adult worker bees of Apis cernan, small beaker method; settings: 500 ppm, 48 hours
Procedure: (2) Toxicity Test on Adult Worker Bees of Apis cernan.
Adult worker bees of Apis cernan having the same size were selected for test. The worker bees were collected from beekeeping boxes in the daystart of the test day and tested by using a small beaker method.
Operation process: A small amount of absorbent cotton was put into a 5 mL small beaker, 5 mL of a test liquid medicine (a concentration of 500 ppm) was dropped into the absorbent cotton, and stirred gently to make the absorbent cotton completely wet but not leached obviously, then the small beaker was put into a 500 mL large beaker, then 15 worker bees were put into the large beaker, and finally the large beaker was sealed with gauze. After treatment, the large beaker was placed in a dark room of an artificial climate box. After taking the medicine for 48 hours, a number of live and dead worker bees were investigated.

[1] = 24 h, read-out: Solenopsis invicta Mortality (%) 100 ppm 24 h, 100 ppm, 24 h
[2] = 72 h, read-out: Solenopsis invicta Mortality (%) 100 ppm 72 h, 100 ppm, 72 h

SMILES	mortality at 500 ppm (Plutella xylostella) [%]	mortality at 500 ppm (Spodoptera exigua; 24 h) [%]	mortality at 500 ppm (Aphis craccivora; 24 h) [%]	mortality at 100 ppm (Solenopsis invicta; [1]) [%]	mortality at 100 ppm (Solenopsis invicta; [2]) [%]	Toxicity determination Bombyx mori L. Mortality (%) (Bombyx mori L.)	Toxicity determination Apis cernan Mortality (%) (Apis cernan)	mortality at 500 ppm (Plutella xylostella; 500 ppm, 2nd-instar larvae, leaf immersion feeding) [%]	mortality at 500 ppm (Spodoptera exigua; 500 ppm, 2nd-instar larvae, leaf immersion feeding, 24 hours) [%]	mortality at 500 ppm (Aphis craccivora; 500 ppm, wingless adults, impregnation method, 24 hours) [%]	mortality at 100 ppm (Solenopsis invicta; 24 h, 100 ppm, 24 h, read-out: Solenopsis invicta Mortality (%) 100 ppm 24 h) [%]	mortality at 100 ppm (Solenopsis invicta; 72 h, 100 ppm, 72 h, read-out: Solenopsis invicta Mortality (%) 100 ppm 72 h) [%]
CNC(=O)C1(CC(=O)OC)Nc2c([S+](C)[O-])c(C(C)=O)nn2-c2c(Cl)cc(C(F)(F)F)cc21 (centres unmarked) [Compound C46]	89	91	90	21	80	5	3	–	–	–	–	–
N#CCC1(C(=O)O)Nc2c([S+]([O-])C(F)(F)F)c(C#N)nn2-c2c(Cl)cc(C(F)(F)F)cc21 (centres unmarked) [Compound C30]	100	90	92	24	100	0	0	–	–	–	–	–
C=CC1(CCl)Nc2c(-c3ccccc3C(F)(F)F)c(C#N)nn2-c2c(Cl)cc(C(F)(F)F)cc21 (centres unmarked) [Compound C9]	100	100	100	39	100	8	9	–	–	–	–	–
COC(=O)Nc1ccc2c(c1)-n1cc(C#N)c(C#N)c1NC2(C#N)C#N [Compound B11]	–	–	–	–	–	7	3	100	100	100	33	95
C=CC1Nc2cc(C#N)nn2-c2c(Cl)cc(C(F)(F)F)cc21 (centres unmarked) [Compound C4]	86	76	100	20	87	3	0	–	–	–	–	–
N#Cc1nn2c(c1[S+]([O-])C(F)(F)F)NC(C(O)CO)c1cc(C(F)(F)F)cc(Cl)c1-2 (centres unmarked) [Compound C51]	87	85	79	19	86	9	5	–	–	–	–	–
N#Cc1cn2c(c1C#N)NC(C#N)(C#N)c1ccc([N+](=O)[O-])cc1-2 [Compound B6]	90	100	100	44	100	4	5	–	–	–	–	–
C=CC1(CCl)Nc2c(-c3cc(C)oc3C)c(C#N)nn2-c2c(Cl)cc(C(F)(F)F)cc21 (centres unmarked) [Compound C10]	100	85	100	27	100	10	9	–	–	–	–	–
N#Cc1nn2c(c1[S+]([O-])C(F)(F)F)NC(CC(N)=O)(C(N)=O)c1cc(C(F)(F)F)cc(Cl)c1-2 (centres unmarked) [Compound C38]	100	90	100	25	90	4	0	–	–	–	–	–
CC(=O)c1nn2c(c1Br)NC(C)(C)c1ccccc1-2 [Compound A5]	100	100	100	34	100	2	9	–	–	–	–	–
Cc1cc(-c2c(C#N)nn3c2NC(C(O)CO)c2cc(C(F)(F)F)cc(Cl)c2-3)c(C)o1 (centres unmarked) [Compound C52]	90	91	100	22	90	10	7	–	–	–	–	–
CSc1nn2c(c1S(=O)(=O)c1ccccc1)NC(C)(C)c1nc(F)ncc1-2 [Compound A45]	100	100	100	24	100	10	11	–	–	–	–	–
N#Cc1cnn2c1NC(F)(CN)c1ccc(Cl)cc1-2 (centres unmarked) [Compound A22]	96	100	100	30	97	0	3	–	–	–	–	–
CNC(=O)C1(CC(=O)OC)Nc2c([S+]([O-])C(F)(F)F)c(C#N)nn2-c2c(Cl)cc(C(F)(F)F)cc21 (centres unmarked) [Compound C35]	100	100	100	38	100	4	4	–	–	–	–	–
COC(=O)CC1(C(=O)OC)c2cc(C(F)(F)F)cc(Cl)c2-n2nc(C#N)c([S+]([O-])C(F)(F)F)c2N1C(C)=O (centres unmarked) [Compound C40]	100	95	100	28	90	4	4	–	–	–	–	–
N#Cc1cn2c(c1C#N)NC(C#N)(C#N)c1ccc(N)cc1-2 [Compound B7]	100	100	100	38	100	6	6	–	–	–	–	–
CN(C)CC1(CC#N)Nc2c([S+]([O-])C(F)(F)F)c(C#N)nn2-c2c(Cl)cc(C(F)(F)F)cc21 (centres unmarked) [Compound C29]	100	93	100	30	100	0	4	–	–	–	–	–
CCc1nn2c(c1-c1cc(C)sc1C)NC(/C=C\C(=O)OC)(/C=C/C(=O)OC)c1cc(C(F)(F)F)cc(Cl)c1-2 (centres unmarked) [Compound C64]	92	97	100	17	90	7	9	–	–	–	–	–
CC1(C)Nc2c([N+](=O)[O-])c(C#N)nn2-c2ccccc21 [Compound A21]	100	100	100	24	100	0	6	–	–	–	–	–
CC(=O)c1nn2c(c1[S+](C)[O-])NC(CC#N)(C(=O)O)c1cc(C(F)(F)F)cc(Cl)c1-2 (centres unmarked) [Compound C43]	86	89	95	18	80	0	4	–	–	–	–	–
